Holding throughout (type): cell-based
For one experiment, the system named is Botrtyis cinerea (Bc). The experiment is described as follows: In vitro pathogen growth inhibition assay, Bc. The settings on record: 48 h. The gist of the method:
(§1)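 Value reported is the compound concentration reaching ≥90% growth inhibition, from OD readings at 24 and 48 h after blank subtraction, confirmed visually. Inoculum was spores diluted in 17% V8 medium, except Rs, using 1.5 mm mycelial plugs in ¼ PDB; actual compound concentration corrected via OD600.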

In another experiment the test system is Septoria tritici (St). The experiment is described as follows: In vitro pathogen growth inhibition assay, St. The settings on record: Zymoseptoria tritici, 48 h. The gist of the method:
as §1

Experiment [1] deals with Phytophthora capsici (Pc). The experiment is described as follows: In vitro pathogen growth inhibition assay, Pc. The settings on record: 48 h. The gist of the method: as §1
The test system of a further experiment is Diplodia maydis (Dm). The experiment is described as follows: In vitro pathogen growth inhibition assay, Dm. The settings on record: Stenocarpella maydis, 48 h. The method in brief:
as §1

Experiment [2] concerns Fusarium virguliforme (Fv). The experiment is described as follows: In vitro pathogen growth inhibition assay, Fv. The method in brief: as §1
Another experiment deals with Rhizoctonia solani (Rs). The experiment is described as follows: In vitro pathogen growth inhibition assay, Rs (mycelial plugs). The settings on record: Rhizoctonia solani, 48 h. The gist of the method:
as §1

The subject of experiment [3] is Fusarium moniliforme (Fm). The experiment is described as follows: In vitro pathogen growth inhibition assay, Fm. The settings on record: Fusarium verticillioides. The gist of the method: as §1
The test system of experiment [4] is Collectotrichum graminicola (Cg). The experiment is described as follows: In vitro pathogen growth inhibition assay, Cg. The settings on record: 48 h. The method in brief: as §1
Setting [5] is: ≥90% growth inhibition, 48 hours, vs 2% DMSO control, read-out: Compound Concentration (ppm) sufficient for ≥90% inhibition of Bc.
The mark [6] stands for this setting: ≥90% growth inhibition, 48 hours, vs 2% DMSO control, read-out: Compound Concentration (ppm) sufficient for ≥90% inhibition of St.
Setting [7] is: ≥90% growth inhibition, 48 hours, vs 2% DMSO control, read-out: Compound Concentration (ppm) sufficient for ≥90% inhibition of Pc.
Setting [8] is: ≥90% growth inhibition, 48 hours, vs 2% DMSO control, read-out: Compound Concentration (ppm) sufficient for ≥90% inhibition of Dm.
Setting [9] is: ≥90% growth inhibition, 48 hours, vs 2% DMSO control, read-out: Compound Concentration (ppm) sufficient for ≥90% inhibition of Fv.
Setting [10] is: ≥90% growth inhibition, mycelial plugs, 48 hours, vs 2% DMSO control, read-out: Compound Concentration (ppm) sufficient for ≥90% inhibition of Rs.
Where [11] appears, read: ≥90% growth inhibition, 48 hours, vs 2% DMSO control, read-out: Compound Concentration (ppm) sufficient for ≥90% inhibition of Fm.
The mark [12] stands for this setting: ≥90% growth inhibition, 48 hours, vs 2% DMSO control, read-out: Compound Concentration (ppm) sufficient for ≥90% inhibition of Cg.
Setting [13] is: concentration sufficient to ≥90% inhibition of growth, 48 hours vs 2% DMSO control, read-out: Compound Concentration (ppm) for ≥90% inhibition, Bc.
The mark [14] stands for this setting: concentration sufficient to ≥90% inhibition of growth, 48 hours vs 2% DMSO control, read-out: Compound Concentration (ppm) for ≥90% inhibition, St.
Where [15] appears, read: concentration sufficient to ≥90% inhibition of growth, 48 hours vs 2% DMSO control, read-out: Compound Concentration (ppm) for ≥90% inhibition, Pc.
The mark [16] stands for this setting: concentration sufficient to ≥90% inhibition of growth, 48 hours vs 2% DMSO control, read-out: Compound Concentration (ppm) for ≥90% inhibition, Dm.
[17] abbreviates: concentration sufficient to ≥90% inhibition of growth, 48 hours vs 2% DMSO control, read-out: Compound Concentration (ppm) for ≥90% inhibition, Fv.
Setting [18] is: concentration sufficient to ≥90% inhibition of growth, 48 hours vs 2% DMSO control, read-out: Compound Concentration (ppm) for ≥90% inhibition, Rs.
Setting [19] is: concentration sufficient to ≥90% inhibition of growth, 48 hours vs 2% DMSO control, read-out: Compound Concentration (ppm) for ≥90% inhibition, Fm.
Where [20] appears, read: concentration sufficient to ≥90% inhibition of growth, 48 hours vs 2% DMSO control, read-out: Compound Concentration (ppm) for ≥90% inhibition, Cg.

The record followed here is patent US10941157B2, “Pesticidal compositions and uses thereof” (Gilead Apollo, LLC, priority 2015, dated 2021).

Structures are written as SMILES. Converted amounts (≈) assume the structure as drawn. Where two headings read alike, the source gives them in different places.

Turning to `CCNC(=O)C(C)(C)n1c(=O)c2c(C)c(C(=O)OCC)sc2n(C[C@H](OCCC#N)c2cc(F)ccc2O)c1=O` [Compound I-302], the IC90 with Botrtyis cinerea (Bc) (setting [5]) is 10 mg/L (≈ 17.4 µM); in the experiment with Septoria tritici (St) (setting [6]) it was over 50 mg/L; in experiment [1] (setting [7]), over 50 mg/L; with Diplodia maydis (Dm) (setting [8]), 50 mg/L (≈ 87 µM); in experiment [2] (setting [9]), 2 mg/L (≈ 3.48 µM); in the experiment with Rhizoctonia solani (Rs) (setting [10]) it was 0.08 mg/L (≈ 0.139 µM). Further, the IC90 was at least 2 mg/L in experiment [3] (setting [11]) and 50 mg/L (≈ 87 µM) in experiment [4] (setting [12]).
As to `CCOC(=O)c1sc2c(c1C)c(=O)n(C(C)(C)C(=O)NC(C)C)c(=O)n2C[C@H](OCC(C)(C)C#N)c1ccccc1OC` [Compound I-303], the IC90 was 0.4 mg/L (≈ 0.653 µM) in the experiment with Botrtyis cinerea (Bc) (setting [5]); over 50 mg/L with Septoria tritici (St) (setting [6]); over 50 mg/L in experiment [1] (setting [7]); at least 2 mg/L with Diplodia maydis (Dm) (setting [8]); 2 mg/L (≈ 3.26 µM) in experiment [2] (setting [9]); 2 mg/L (≈ 3.26 µM) in the experiment on Rhizoctonia solani (Rs) (setting [10]). Moreover, the IC90 in experiment [3] (setting [11]) was determined as 0.08 mg/L (≈ 0.131 µM); in experiment [4] (setting [12]), 2 mg/L (≈ 3.26 µM).
For `CC(=O)Oc1ccccc1[C@H](Cn1c(=O)n(C(C)(C)C(=O)NC(C)C)c(=O)c2c(C)c(-n3nccn3)sc21)OCCC#N` [Compound I-304], the IC90 in the experiment on Botrtyis cinerea (Bc) (setting [5]) is 2 mg/L (≈ 3.29 µM); in the experiment with Septoria tritici (St) (setting [6]) it was over 50 mg/L; in experiment [1] (setting [7]), over 50 mg/L; in the experiment on Diplodia maydis (Dm) (setting [8]), at least 10 mg/L; in experiment [2] (setting [9]), 0.4 mg/L (≈ 0.658 µM); in the experiment with Rhizoctonia solani (Rs) (setting [10]), 2 mg/L (≈ 3.29 µM). Moreover, the values for the IC90 in experiment [3] (setting [11]) and in experiment [4] (setting [12]) were 0.08 mg/L (≈ 0.132 µM) and 2 mg/L (≈ 3.29 µM), respectively.
`CCNC(=O)[C@H](C)n1c(=O)c2c(C)c(C(=O)OCC)sc2n(C[C@H](OCCC#N)c2cc(F)ccc2OC)c1=O` [Compound I-305]: the IC90 is 0.4 mg/L (≈ 0.696 µM) in the experiment with Botrtyis cinerea (Bc) (setting [5]); over 50 mg/L with Septoria tritici (St) (setting [6]); over 50 mg/L in experiment [1] (setting [7]); 2 mg/L (≈ 3.48 µM) in the experiment with Diplodia maydis (Dm) (setting [8]); 0.4 mg/L (≈ 0.696 µM) in experiment [2] (setting [9]); 0.4 mg/L (≈ 0.696 µM) in the experiment with Rhizoctonia solani (Rs) (setting [10]). Further, the IC90 was 0.08 mg/L (≈ 0.139 µM) in experiment [3] (setting [11]) and 2 mg/L (≈ 3.48 µM) in experiment [4] (setting [12]).
Regarding `CCNC(=O)[C@H](C)n1c(=O)c2c(C)c(-n3cccn3)sc2n(C[C@H](OCCC#N)c2cc(F)ccc2OC)c1=O` [Compound I-306], the IC90 in the experiment on Botrtyis cinerea (Bc) (setting [13]) is 50 mg/L (≈ 87.9 µM); in the experiment on Septoria tritici (St) (setting [14]) it was over 50 mg/L; in experiment [1] (setting [15]) it was over 50 mg/L; with Diplodia maydis (Dm) (setting [16]), over 50 mg/L; in experiment [2] (setting [17]), over 50 mg/L; with Rhizoctonia solani (Rs) (setting [18]) it was over 50 mg/L. Also, the values for the IC90 in experiment [3] (setting [19]) and in experiment [4] (setting [20]) were 10 mg/L (≈ 17.6 µM) and over 50 mg/L, respectively.
Regarding `COc1ccc(F)cc1[C@H](Cn1c(=O)n(C(C)(C)C(=O)NC(C)C)c(=O)c2c(C)c(-n3nccn3)sc21)OC(=O)CO` [Compound I-309], the IC90 in the experiment on Botrtyis cinerea (Bc) (setting [13]) was 50 mg/L (≈ 83 µM); in the experiment with Septoria tritici (St) (setting [14]), over 50 mg/L; in experiment [1] (setting [15]), over 50 mg/L; in the experiment on Diplodia maydis (Dm) (setting [16]) it was over 50 mg/L; in experiment [2] (setting [17]), 10 mg/L (≈ 16.6 µM); in the experiment with Rhizoctonia solani (Rs) (setting [18]), over 50 mg/L. In addition, the IC90 in experiment [3] (setting [19]) is 10 mg/L (≈ 16.6 µM); in experiment [4] (setting [20]) it was over 50 mg/L.
Consider `COCCO[C@@H](Cn1c(=O)n([C@@H](C)C(=O)NC(C)C)c(=O)c2c(C)c(-n3cccn3)sc21)c1cc(F)ccc1OC` [Compound I-311], for which the IC90 with Botrtyis cinerea (Bc) (setting [13]) was 50 mg/L (≈ 85.1 µM); with Septoria tritici (St) (setting [14]), over 50 mg/L; in experiment [1] (setting [15]), over 50 mg/L; in the experiment on Diplodia maydis (Dm) (setting [16]), over 50 mg/L; in experiment [2] (setting [17]), over 50 mg/L; with Rhizoctonia solani (Rs) (setting [18]) it was over 50 mg/L. The values for the IC90 in experiment [3] (setting [19]) and in experiment [4] (setting [20]) were 50 mg/L (≈ 85.1 µM) and over 50 mg/L, respectively.
In the case of `COc1ccc(F)cc1[C@H](Cn1c(=O)n([C@@H](C)C(=O)NC2CCC2)c(=O)c2c(C)c(-n3cccn3)sc21)OCCC#N` [Compound I-312], the IC90 in the experiment with Botrtyis cinerea (Bc) (setting [13]) is over 50 mg/L; in the experiment on Septoria tritici (St) (setting [14]), over 50 mg/L; in experiment [1] (setting [15]), over 50 mg/L; with Diplodia maydis (Dm) (setting [16]) it was over 50 mg/L; in experiment [2] (setting [17]), over 50 mg/L; with Rhizoctonia solani (Rs) (setting [18]) it was 2 mg/L (≈ 3.36 µM). Besides, the IC90 in experiment [3] (setting [19]) is 10 mg/L (≈ 16.8 µM); in experiment [4] (setting [20]), over 50 mg/L.
Consider `COc1ccc(F)cc1[C@H](Cn1c(=O)n([C@@H](C)C(=O)N2CCCC2)c(=O)c2c(C)c(-n3cccn3)sc21)OCCC#N` [Compound I-313], for which the IC90 in the experiment with Botrtyis cinerea (Bc) (setting [5]) was over 50 mg/L; in the experiment with Septoria tritici (St) (setting [6]), over 50 mg/L; in experiment [1] (setting [7]), over 50 mg/L; in the experiment on Diplodia maydis (Dm) (setting [8]), over 50 mg/L; in experiment [2] (setting [9]), 50 mg/L (≈ 84.1 µM); in the experiment with Rhizoctonia solani (Rs) (setting [10]) it was 50 mg/L (≈ 84.1 µM). The IC90 in experiment [3] (setting [11]) turned out to be 2 mg/L (≈ 3.36 µM); in experiment [4] (setting [12]), 50 mg/L (≈ 84.1 µM).
